PubChem BioAssay (NCI)
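All cell lines were grown in 96-well plates and treated with compound for 48 hours. TGI is the concentration that stops growth completely.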

Experiments:
Experiment in all cases: inhibition of tumour cell growth, NCI panel, 48 h
[1] = test system: SF-295 CNS
[2] = test system: RPMI-8226 leukemia
[3] = test system: SR leukemia
[4] = test system: RXF-631 renal
[5] = test system: A498 renal
[6] = test system: COLO 205 colon
[7] = test system: K-562 leukemia
[8] = test system: EKVX NSCLC
[9] = test system: MOLT-4 leukemia
[10] = test system: SK-OV-3 ovarian
[11] = test system: SW-620 colon
[12] = test system: LXFL 529 NSCLC
[13] = test system: MALME-3M melanoma
[14] = test system: SF-539 CNS
[15] = test system: HL-60(TB) leukemia
[16] = test system: M14 melanoma
[17] = test system: CCRF-CEM leukemia
[18] = test system: NCI-H522 lung
[19] = test system: IGROV1 ovarian
[20] = test system: SK-MEL-2 melanoma
[21] = test system: DLD-1 colon
[22] = test system: KM12 colon
[23] = test system: SNB-75 CNS
[24] = test system: 786-0 renal
[25] = test system: UACC-257 melanoma
[26] = test system: NCI-H226 lung
[27] = test system: SN12C renal
[28] = test system: OVCAR-8 ovarian
[29] = test system: SK-MEL-28 melanoma
[30] = test system: LOX IMVI melanoma
[31] = test system: RXF 393 renal
[32] = test system: SNB-78 CNS
[33] = test system: U251 CNS
[34] = test system: HCT-15 colon
[35] = test system: A549 NSCLC
[36] = test system: SNB-19 CNS
[37] = test system: HOP-18 NSCLC
[38] = test system: OVCAR-3 ovarian
[39] = test system: UACC-62 melanoma
[40] = test system: NCI-H23 lung
[41] = test system: M19-MEL melanoma
[42] = test system: KM20L2 colon
[43] = test system: SF-268 CNS
[44] = test system: HOP-62 NSCLC
[45] = test system: ACHN renal
[46] = test system: SK-MEL-5 melanoma
[47] = test system: OVCAR-4 ovarian
[48] = test system: XF 498 CNS
[49] = test system: UO-31 renal
[50] = test system: NCI-H460 lung
[51] = test system: DMS 273 small cell lung
[52] = test system: CAKI-1 renal
[53] = test system: HCT-116 colon
[54] = test system: DMS 114 small cell lung
[55] = test system: HT29 colon
[56] = test system: OVCAR-5 ovarian
[57] = test system: HCC-2998 colon
[58] = test system: TK-10 renal
[59] = test system: HOP-92 NSCLC

Compound: C=C1C[C@]23CCC4C(C)(C)C(=O)CC[C@]4(C)C2C[C@H]1C(O)C3=O (some centres undefined)
- TGI [1]: > 75 µM
- TGI [2]: > 75 µM
- TGI [3]: > 75 µM
- TGI [4]: > 75 µM
- TGI [5]: > 75 µM
- TGI [6]: > 75 µM
- TGI [7]: > 75 µM
- TGI [8]: > 75 µM
- TGI [9]: > 75 µM
- TGI [10]: > 75 µM
- TGI [11]: > 75 µM
- TGI [12]: > 75 µM
- TGI [13]: > 75 µM
- TGI [14]: > 75 µM
- TGI [15]: > 75 µM
- TGI [16]: > 75 µM
- TGI [17]: > 75 µM
- TGI [18]: > 75 µM
- TGI [19]: > 75 µM
- TGI [20]: > 75 µM
- TGI [21]: > 75 µM
- TGI [22]: > 75 µM
- TGI [23]: > 75 µM
- TGI [24]: > 75 µM
- TGI [25]: > 75 µM
- TGI [26]: > 75 µM
- TGI [27]: > 75 µM
- TGI [28]: > 75 µM
- TGI [29]: > 75 µM
- TGI [30]: > 75 µM
- TGI [31]: > 75 µM
- TGI [32]: > 75 µM
- TGI [33]: > 75 µM
- TGI [34]: > 75 µM
- TGI [35]: > 75 µM
- TGI [36]: > 75 µM
- TGI [37]: > 75 µM
- TGI [38]: > 75 µM
- TGI [39]: > 75 µM
- TGI [40]: > 75 µM
- TGI [41]: > 75 µM
- TGI [42]: > 75 µM
- TGI [43]: > 75 µM
- TGI [44]: > 75 µM
- TGI [45]: > 75 µM
- TGI [46]: > 75 µM
- TGI [47]: > 75 µM
- TGI [48]: > 75 µM
- TGI [49]: > 75 µM

Compound: O=C1[C@H]2ON(c3ccccc3)C(c3ccc(Cl)cc3)[C@H]2C(=O)N1c1ccc(Cc2ccc(N3C(=O)[C@@H]4ON(c5ccccc5)C(c5ccc(Cl)cc5)[C@@H]4C3=O)cc2)cc1 (some centres undefined)
- TGI [1]: > 100 µM
- TGI [50]: > 100 µM
- TGI [2]: > 100 µM
- TGI [3]: > 100 µM
- TGI [4]: > 100 µM
- TGI [5]: > 100 µM
- TGI [6]: > 100 µM
- TGI [51]: > 100 µM
- TGI [7]: > 100 µM
- TGI [8]: > 100 µM
- TGI [9]: > 100 µM
- TGI [10]: > 100 µM
- TGI [11]: > 100 µM
- TGI [12]: > 100 µM
- TGI [52]: > 100 µM
- TGI [13]: > 100 µM
- TGI [14]: > 100 µM
- TGI [15]: > 100 µM
- TGI [16]: 66.8 µM
- TGI [17]: > 100 µM
- TGI [18]: > 100 µM
- TGI [19]: > 100 µM
- TGI [20]: > 100 µM
- TGI [21]: > 100 µM
- TGI [53]: > 100 µM
- TGI [22]: > 100 µM
- TGI [23]: > 100 µM
- TGI [24]: > 100 µM
- TGI [25]: > 100 µM
- TGI [54]: > 100 µM
- TGI [26]: > 100 µM
- TGI [27]: > 100 µM
- TGI [55]: > 100 µM
- TGI [28]: > 100 µM
- TGI [29]: > 100 µM
- TGI [30]: > 100 µM
- TGI [31]: > 100 µM
- TGI [32]: > 100 µM
- TGI [33]: > 100 µM
- TGI [34]: > 100 µM
- TGI [35]: > 100 µM
- TGI [36]: > 100 µM
- TGI [56]: > 100 µM
- TGI [37]: > 100 µM
- TGI [57]: > 100 µM
- TGI [38]: > 100 µM
- TGI [39]: > 100 µM
- TGI [40]: > 100 µM
- TGI [41]: > 100 µM
- TGI [42]: > 100 µM
- TGI [43]: > 100 µM
- TGI [44]: > 100 µM
- TGI [45]: > 100 µM
- TGI [58]: > 100 µM
- TGI [46]: > 100 µM
- TGI [47]: > 100 µM
- TGI [49]: > 100 µM

Compound: Oc1cc(C2OCCCO2)cc(O)c1O
- TGI [1]: > 100 µM
- TGI [50]: > 100 µM
- TGI [2]: > 100 µM
- TGI [3]: > 100 µM
- TGI [4]: > 100 µM
- TGI [5]: > 100 µM
- TGI [6]: > 100 µM
- TGI [51]: > 100 µM
- TGI [7]: > 100 µM
- TGI [8]: > 100 µM
- TGI [9]: > 100 µM
- TGI [10]: > 100 µM
- TGI [11]: > 100 µM
- TGI [12]: > 100 µM
- TGI [52]: > 100 µM
- TGI [13]: > 100 µM
- TGI [14]: > 100 µM
- TGI [15]: > 100 µM
- TGI [16]: > 100 µM
- TGI [17]: > 100 µM
- TGI [18]: > 100 µM
- TGI [19]: > 100 µM
- TGI [20]: > 100 µM
- TGI [21]: > 100 µM
- TGI [53]: > 100 µM
- TGI [22]: > 100 µM
- TGI [23]: > 100 µM
- TGI [24]: > 100 µM
- TGI [25]: > 100 µM
- TGI [54]: > 100 µM
- TGI [26]: > 100 µM
- TGI [27]: > 100 µM
- TGI [55]: > 100 µM
- TGI [28]: > 100 µM
- TGI [29]: > 100 µM
- TGI [32]: > 100 µM
- TGI [33]: > 100 µM
- TGI [34]: > 100 µM
- TGI [35]: > 100 µM
- TGI [36]: > 100 µM
- TGI [56]: > 100 µM
- TGI [37]: > 100 µM
- TGI [57]: > 100 µM
- TGI [38]: > 100 µM
- TGI [39]: > 100 µM
- TGI [40]: > 100 µM
- TGI [41]: > 100 µM
- TGI [42]: > 100 µM
- TGI [43]: > 100 µM
- TGI [44]: > 100 µM
- TGI [45]: > 100 µM
- TGI [58]: > 100 µM
- TGI [46]: > 100 µM
- TGI [47]: > 100 µM
- TGI [49]: > 100 µM

Compound: O=C1c2ccc3c4ccccc4n(Cc4ccccc4)c3c2C(=O)N1c1ccccc1
- TGI [1]: 28.3 µM
- TGI [50]: > 100 µM
- TGI [2]: 40.1 µM
- TGI [3]: 22.1 µM
- TGI [4]: 36.4 µM
- TGI [5]: 45.9 µM
- TGI [6]: 11.1 µM
- TGI [51]: 24.9 µM
- TGI [7]: 34.2 µM
- TGI [8]: 39.4 µM
- TGI [9]: 9.54 µM
- TGI [10]: > 55.6 µM
- TGI [11]: 20.1 µM
- TGI [12]: 27.7 µM
- TGI [52]: 25.1 µM
- TGI [13]: 29.9 µM
- TGI [14]: 31.1 µM
- TGI [15]: > 44.7 µM
- TGI [16]: 27.9 µM
- TGI [17]: 3.68 µM
- TGI [18]: 6.93 µM
- TGI [19]: 35.7 µM
- TGI [20]: 46.5 µM
- TGI [59]: 26.9 µM
- TGI [21]: 37.3 µM
- TGI [53]: 30 µM
- TGI [22]: 30.6 µM
- TGI [23]: 27.7 µM
- TGI [24]: 26.7 µM
- TGI [25]: 29.9 µM
- TGI [54]: 34.1 µM
- TGI [26]: 29.7 µM
- TGI [27]: 30.1 µM
- TGI [55]: 39.2 µM
- TGI [28]: 31.9 µM
- TGI [29]: 31.3 µM
- TGI [30]: 31.4 µM
- TGI [31]: 26.7 µM
- TGI [32]: 71.7 µM
- TGI [33]: 29.3 µM
- TGI [34]: 22.7 µM
- TGI [35]: 34.9 µM
- TGI [36]: 42.3 µM
- TGI [56]: 33 µM
- TGI [37]: 24.4 µM
- TGI [57]: 37.2 µM
- TGI [38]: 11.9 µM
- TGI [39]: 31.7 µM
- TGI [40]: 17.6 µM
- TGI [41]: 33.2 µM
- TGI [42]: 45.2 µM
- TGI [43]: 40.8 µM
- TGI [44]: > 57.6 µM
- TGI [45]: > 50.5 µM
- TGI [58]: 29 µM
- TGI [46]: 29.9 µM
- TGI [47]: 23.1 µM
- TGI [49]: 30.1 µM
